# Experimental data as given in article PMC11901578, “Polymethoxyflavones and Bone Metabolism” (Nutrients, 2025).
# Where two headings read alike, the source gives them in different places.
# Assays:
# [1] = system: PGE2 production in osteoblasts; parameters: method as in PMID 21258168, PMID 22850615; conditions: with downregulation of COX-2; cited from earlier work
# [2] = system: bone resorption in mouse bone organ cultures; parameters: method as in PMID 21258168, PMID 22850615; conditions: 60 μM; cited from earlier work
# [3] = system: osteoclast differentiation in co-culture system; conditions: 30 μM, cited from earlier work
# human OA chondrocytes = system: human OA chondrocytes; parameters: method as in PMID 30938722; conditions: IL-1-stimulated human OA chondrocytes; cited from earlier work
# [4] = system: collagen-induced arthritic mice; conditions: cited from earlier work
# [5] = system: MH7A human fibroblast-like synoviocytes (FLS); parameters: method as in PMID 31978425; conditions: 50 μM; cited from earlier work
# [6] = system: human periodontal ligament cells (HPDLCs); conditions: 12.5, 25, 50, and 100 μM, TNF- or IL-1-stimulated HPDLCs; cited from earlier work
# [7] = system: osteoclast differentiation in co-cultures of osteoblasts and bone marrow cells; conditions: cited from earlier work
# [8] = system: human umbilical vein endothelial cells (HUVECs); parameters: method as in PMID 22707269; conditions: read-out: IC50, anti-proliferative effect on HUVECs; cited from earlier work
# [9] = system: bone marrow macrophages (BMMs); conditions: 50 μM; cited from earlier work
# HL-60 cells = system: HL-60 cells; parameters: method as in PMID 23225422; conditions: read-out: IC50, anti-proliferative effect on HL-60 cells; cited from earlier work
# DMM-OA mice = conditions: cited from earlier work
# [10] = system: ectopic bone formation in mice; parameters: method as in PMID 36816515; conditions: collagen sponge disk with BMP-2 (1 μg) and nobiletin (2.5 or 5 μg), fascia of back muscle; cited from earlier work
# IKKβ = system: IKKβ; parameters: method as in PMID 21258168, PMID 22850615; conditions: in vitro kinase assay; cited from earlier work
# [11] = system: bone resorption in mouse calvarial or alveolar bone organ cultures; conditions: 30 μM, bone organ cultures; cited from earlier work
# [12] = system: alveolar bone loss in mice; conditions: cited from earlier work; for alveolar bone loss in mice, restored: LPS +; for decrease of alveolar bone mineral density (ABMD): co-injection with LPS (25 μg/mouse/day), three times every other day, LPS alone 9%
# [13] = system: ovariectomized (OVX) mice; conditions: cited from earlier work
# zebrafish embryos = system: zebrafish embryos; parameters: method as in PMID 22707269; conditions: 30 μM, cited from earlier work
# Raw264.7 = conditions: cited from earlier work
# [14] = system: human osteoblastic cell line MG-63; parameters: method as in PMID 34466066; conditions: 10 and 20 μg/mL (approximately 25 and 50 μM); cited from earlier work
# estrogen receptor-α = estrogen receptor-α (Homo sapiens, UniProt P03372); assay: Estrogen receptor-binding assay; conditions: unpublished data
# Description: (§1) An anticipated adverse effect of long-term flavonoid supplementation is an estrogen-like effect. Although isoflavones, such as genistein and daidzein, have estrogenic effects via binding to estrogen receptors, there are no reports on polymethoxyflavones. […] On the other hand, excessive long-term intake of PMFs may indicate some toxicity, since a high concentration of PMFs may lead to inhibited cell growth or cell death in various cell types, including osteoblasts, endothelial cells, and cancer cell lines.
# estrogen receptor-β = estrogen receptor-β (Homo sapiens, UniProt Q92731); assay: Estrogen receptor-binding assay; conditions: unpublished data
# Description: as §1
# [15] = system: NF-κB signaling in chondrocytes; parameters: method as in PMID 31214026; conditions: 10, 20, and 40 μM; cited from earlier work
# [16] = intraperitoneal 50 μM for 9 weeks
# [17] = intraperitoneal 2 mg/mouse/day (approximately 67 mg/kg) for 4 weeks, Sham mice as 100%
# [18] = subcutaneous 0.25 mg/day by mini-osmotic pump for 4 weeks
# estrogen receptor-β, sequence (Q92731 whole entry): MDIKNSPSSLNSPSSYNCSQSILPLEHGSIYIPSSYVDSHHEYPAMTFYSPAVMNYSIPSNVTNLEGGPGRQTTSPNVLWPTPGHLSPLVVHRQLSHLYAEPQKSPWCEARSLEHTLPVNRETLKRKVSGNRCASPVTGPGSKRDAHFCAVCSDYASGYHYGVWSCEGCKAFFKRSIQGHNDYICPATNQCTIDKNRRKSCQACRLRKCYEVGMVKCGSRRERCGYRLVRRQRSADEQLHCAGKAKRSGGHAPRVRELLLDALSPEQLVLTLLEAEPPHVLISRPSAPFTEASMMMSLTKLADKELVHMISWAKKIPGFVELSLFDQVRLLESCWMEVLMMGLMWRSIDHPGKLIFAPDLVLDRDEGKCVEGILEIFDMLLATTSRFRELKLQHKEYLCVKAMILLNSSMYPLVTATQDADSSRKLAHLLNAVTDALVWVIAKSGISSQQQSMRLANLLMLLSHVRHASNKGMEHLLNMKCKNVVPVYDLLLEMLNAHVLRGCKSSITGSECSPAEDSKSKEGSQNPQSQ
# estrogen receptor-α, sequence (P03372 whole entry): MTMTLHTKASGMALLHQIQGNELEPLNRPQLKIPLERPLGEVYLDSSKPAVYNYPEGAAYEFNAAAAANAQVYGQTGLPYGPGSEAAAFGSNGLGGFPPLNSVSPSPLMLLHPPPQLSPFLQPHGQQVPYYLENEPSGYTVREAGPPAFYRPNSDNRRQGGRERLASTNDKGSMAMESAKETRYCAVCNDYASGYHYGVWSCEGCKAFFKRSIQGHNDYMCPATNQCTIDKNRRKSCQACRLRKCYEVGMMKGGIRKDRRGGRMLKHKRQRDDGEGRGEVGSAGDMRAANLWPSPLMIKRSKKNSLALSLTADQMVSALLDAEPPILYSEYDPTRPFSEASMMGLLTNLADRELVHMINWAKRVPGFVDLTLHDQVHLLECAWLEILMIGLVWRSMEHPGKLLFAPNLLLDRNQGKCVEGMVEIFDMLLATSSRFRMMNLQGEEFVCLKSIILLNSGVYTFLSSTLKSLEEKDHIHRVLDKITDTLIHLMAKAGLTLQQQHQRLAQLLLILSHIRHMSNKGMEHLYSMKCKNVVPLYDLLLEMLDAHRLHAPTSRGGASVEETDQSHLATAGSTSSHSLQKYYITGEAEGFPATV
structure (smiles),measurement,setting,value
"COc1ccc(-c2cc(=O)c3c(OC)c(OC)c(OC)c(OC)c3o2)cc1OC [Nobiletin, 3′,4′,5,6,7,8-Hexamethoxyflavone]",PGE2 production,[1],suppressed
same,IL-1-induced bone resorption,[2],completely suppressed
same,LPS-induced osteoclast differentiation,[3]; co-cultures,significantly suppressed
same,"osteoclast differentiation in co-culture system, inhibited",[3]; LPS +,70% inhibited [8]
same,"overproduction of inflammatory mediators (PGE2, NO, COX-2, iNOS, TNF-α, IL-6, MMPs)",human OA chondrocytes,significantly suppressed
same,gene expression and production of aggrecanase-1 and -2,[4]; collagen-induced arthritic mice,downregulate
same,decrease of severity of arthritis,"[4]; intraperitoneal 15, 30, and 60 mg/kg",45%
same,IL-21-mediated inflammatory response,[5],suppressed
same,"expression of inflammatory cytokines (CXCL10, CCL2, IL-8), MMP-1, MMP-3, and COX-2",[6],dose-dependently reduced
same,inhibition of IL-1-induced osteoclast differentiation,[7]; 10 μM,20%
same,inhibition of IL-1-induced osteoclast differentiation,[7]; 30 μM,85%
same,inhibition of IL-1-induced osteoclast differentiation,[7]; 60 μM,100%
same,IC50,"[7]; IL-1 +, read-out: IC50, osteoclast differentiation in co-culture system",33 µM
same,IC50,[8],62 µM
same,cytotoxicity to bone marrow macrophages (BMMs),[9],cytotoxic
same,IC50,HL-60 cells,52 µM
same,cartilage destruction and synovitis,"DMM-OA mice; DMM-OA mice, intraperitoneal 20 mg/kg every 2 days for 8 weeks",inhibited cartilage destruction and synovitis
same,cartilage destruction and subchondral bone thickening,DMM-OA mice; DMM-OA model mice,prevented cartilage destruction and thickening of the subchondral bone
same,increase of bone formation (BV/TV) relative to BMP-2 alone,[10],33%
same,IKKβ kinase activity,IKKβ,directly inhibited
same,LPS-induced bone-resorbing activity,[11],significantly suppressed
same,"alveolar bone loss in mice, restored",[12]; 30 μg/mouse,5% restored [8]
same,"alveolar bone loss in mice, restored",[12]; 100 μg/mouse,6% restored [8]
same,"alveolar bone loss in mice, restored",[12]; 300 μg/mouse,9% restored [8]
same,decrease of alveolar bone mineral density (ABMD),[12]; 3 μg/mouse/day,3%
same,decrease of alveolar bone mineral density (ABMD),[12]; 100 μg/mouse/day,4%
same,decrease of alveolar bone mineral density (ABMD),[12]; 300 μg/mouse/day,1%
same,effect on body weight and the uterus,[13],without affecting body weight and the uterus
same,BMD restored,[13]; [16],4.5%
same,BV/TV restored,[13]; [16],16%
same,trabecular separation (Tb.Sp) restored,[13]; [16],30%
same,bone mineral density (BMD) of the femur restored,[13]; [17],6%
same,bone volume/tissue volume (BV/TV) of the femur restored,[13]; [17],34%
same,trabecular BMD in the distal femur restored,"[13]; oral 50 and 100 mg/kg for 12 weeks, similar effects at both dosages",8%
same,distal BMD in the femur restored,[13]; [18],5%
same,whole BMD in the femur restored,[13]; [18],4%
same,"anti-angiogenic effect on zebrafish embryos, inhibited",zebrafish embryos; listed as nobiletin,~63%
same,"anti-angiogenic effect on zebrafish embryos, inhibited",zebrafish embryos,63% inhibited [47]
same,RANKL-induced osteoclast differentiation,"Raw264.7; 4, 20, and 50 μM, Raw264.7",suppressed RANKL-induced osteoclast differentiation in a dose-dependent manner
same,"osteoclast differentiation in Raw264.7 cultures, inhibited","Raw264.7; RANKL +, 30 μM",86% inhibited [8]
same,IC50,"Raw264.7; RANKL +, read-out: IC50, osteoclast differentiation in Raw264.7 cultures",8 µM
same,osteoblast differentiation and mineralization,[14],promoted osteoblast differentiation and mineralization in a dose-dependent manner
same,binding to estrogen receptor-α,estrogen receptor-α,unable to bind
same,binding to estrogen receptor-β,estrogen receptor-β,unable to bind
same,IL-1-induced NF-κB signaling,[15],inhibited IL-1-induced NF-κB signaling in a dose-dependent manner
